According to patent US12252484B2, “Pyrazolopyridine compounds for the treatment of autoimmune disease” (Hoffmann-La Roche Inc., priority 2018, dated 2025):

The compounds below were run against T1, human TLR8 (Homo sapiens, UniProt Q9NR97) (assay: HEK293-Blue-hTLR-8 cells assay (SEAP reporter, R848 stimulation)). Settings: not given.
T1 sequence (Q9NR97 27-1041): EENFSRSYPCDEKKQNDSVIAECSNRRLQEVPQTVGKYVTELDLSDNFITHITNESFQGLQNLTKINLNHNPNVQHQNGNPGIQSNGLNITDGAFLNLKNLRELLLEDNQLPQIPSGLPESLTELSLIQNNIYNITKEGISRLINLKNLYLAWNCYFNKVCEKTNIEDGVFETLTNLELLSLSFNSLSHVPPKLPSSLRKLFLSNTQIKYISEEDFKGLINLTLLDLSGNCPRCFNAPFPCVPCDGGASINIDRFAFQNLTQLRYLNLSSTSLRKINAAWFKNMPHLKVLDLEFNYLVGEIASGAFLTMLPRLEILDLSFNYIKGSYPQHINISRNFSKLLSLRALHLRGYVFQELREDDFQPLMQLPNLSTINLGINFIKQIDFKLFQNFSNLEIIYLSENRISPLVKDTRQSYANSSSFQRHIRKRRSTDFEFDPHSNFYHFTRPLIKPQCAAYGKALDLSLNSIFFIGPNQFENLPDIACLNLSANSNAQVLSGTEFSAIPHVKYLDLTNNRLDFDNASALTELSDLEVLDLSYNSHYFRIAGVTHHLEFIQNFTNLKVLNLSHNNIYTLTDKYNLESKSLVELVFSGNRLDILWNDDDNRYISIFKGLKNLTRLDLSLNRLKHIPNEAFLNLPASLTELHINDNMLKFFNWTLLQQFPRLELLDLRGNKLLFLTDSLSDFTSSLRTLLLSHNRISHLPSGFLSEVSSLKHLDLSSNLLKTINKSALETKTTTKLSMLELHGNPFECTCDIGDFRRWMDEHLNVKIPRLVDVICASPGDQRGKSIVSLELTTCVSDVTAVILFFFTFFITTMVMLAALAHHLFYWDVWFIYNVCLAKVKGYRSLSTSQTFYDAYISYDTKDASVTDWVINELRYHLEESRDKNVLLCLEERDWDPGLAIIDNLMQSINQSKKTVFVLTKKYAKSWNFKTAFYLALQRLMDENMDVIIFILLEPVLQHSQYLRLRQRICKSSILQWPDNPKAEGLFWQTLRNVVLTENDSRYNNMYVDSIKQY
Format: cell-based
Description: The following tests were carried out in order to determine the activity of the compounds of formula (I) in HEK293-Blue-hTLR-7/8/9 cells assay.
HEK293-Blue-hTLR-8 Cells Assay:
A stable HEK293-Blue-hTLR-8 cell line was purchased from InvivoGen (Cat. #: hkb-htlr8, San Diego, California, USA). These cells were originally designed for studying the stimulation of human TLR8 by monitoring the activation of NF-κB. A SEAP (secreted embryonic alkaline phosphatase) reporter gene was placed under the control of the IFN-β minimal promoter fused to five NF-κB and AP-1-binding sites. The SEAP was induced by activating NF-κB and AP-1 via stimulating HEK-Blue hTLR8 cells with TLR8 ligands. Therefore the reporter expression was declined by TLR8 antagonist under the stimulation of a ligand, such as R848, for incubation of 20 hrs. The cell culture supernatant SEAP reporter activity was determined using QUANTI-Blue™ kit (Cat. #: rep-qb1, Invivogen, San Diego, Ca, USA) at a wavelength of 640 nm, a detection medium that turns purple or blue in the presence of alkaline phosphatase.
HEK293-Blue-hTLR8 cells were incubated at a density of 250,000˜450,000 cells/mL in a volume of 170 μL in a 96-well plate in Dulbecco's Modified Eagle's medium (DMEM) containing 4.5 g/L glucose, 50 U/mL penicillin, […], […], 2 mM L-glutamine, 10% (v/v) heat-inactivated fetal bovine serum with addition of 20 μL test compound in a serial dilution in the presence of final DMSO at 1% and 10 μL of 60 uM R848 in above DMEM, perform incubation under 37° C. in a CO2 incubator for 20 hrs. Then 20 μL of the supernatant from each well was incubated with 180 μL Quanti-blue substrate solution at 37° C. for 2 hrs and the absorbance was read at 620˜655 nm using a spectrophotometer. The signalling pathway that TLR8 activation leads to downstream NF-κB activation has been widely accepted, and therefore similar reporter assay was modified for evaluating TLR8 antagonist.

Compound | IC50 [nM]
C[C@@H]1CN(c2ccc(C#N)n3nccc23)C[C@H](C(=O)NC2CC3CCCC(C2)N3C)O1 (stereo partly drawn) [Example 35, (2R,6R)-4-(7-cyanopyrazolo[1,5-a]pyridin-4-yl)-6-methyl-N-(9-methyl-9-azabicyclo[3.3.1]nonan-3-yl)morpholine-2-carboxamide] | 38

Same assay, conditions: HEK293-Blue-hTLR-8 cells, R848 ligand, 20 hrs incubation; read-out: TLR8 IC50

IC50 [nM] | Compound
140 | C[C@@H]1CN(c2ccc(C#N)n3nccc23)C[C@H](C(=O)NC(C)(C)CN)O1 [Example 41, (2R,6R)-N-(2-amino-1,1-dimethyl-ethyl)-4-(7-cyanopyrazolo[1,5-a]pyridin-4-yl)-6-methyl-morpholine-2-carboxamide]
33 | C[C@@H]1CN(c2ccc(C#N)n3nccc23)C[C@H](C(=O)NCC(C)(C)CN)O1 [Example 39, (2R,6R)-N-(3-amino-2,2-dimethyl-propyl)-4-(7-cyanopyrazolo[1,5-a]pyridin-4-yl)-6-methyl-morpholine-2-carboxamide]
380 | C[C@@H]1CN(c2ccc(C#N)n3nccc23)C[C@H](C(=O)NCC2CCNC2)O1 (stereo partly drawn) [Example 40, (2R,6R)-4-(7-cyanopyrazolo[1,5-a]pyridin-4-yl)-6-methyl-N-(pyrrolidin-3-ylmethyl)morpholine-2-carboxamide]
72 | C[C@@H]1CN(c2ccc(C#N)n3nccc23)C[C@H](C(=O)NC2C3CNC[C@@H]32)O1 (stereo partly drawn) [Example 31, Trans-(2R,6R)-N-(3-azabicyclo[3.1.0]hexan-6-yl)-4-(7-cyanopyrazolo[1,5-a]pyridin-4-yl)-6-methyl-morpholine-2-carboxamide]
160 | C[C@@H]1CN(c2ccc(C#N)n3nccc23)C[C@H](C(=O)N[C@H]2CNC[C@H]2F)O1 [Example 2, (2R,6R)-4-(7-cyanopyrazolo[1,5-a]pyridin-4-yl)-N-[(3S,4R)-4-fluoropyrrolidin-3-yl]-6-methyl-morpholine-2-carboxamide]
95 | C[C@@H]1CN(c2ccc(C#N)n3nccc23)C[C@H](C(=O)NC2CC3(CNC3)C2)O1 [Example 3, (2R,6R)-N-(2-azaspiro[3.3]heptan-6-yl)-4-(7-cyanopyrazolo[1,5-a]pyridin-4-yl)-6-methyl-morpholine-2-carboxamide]
100 | CCC(C)(C)NC(=O)[C@H]1CN(c2ccc(C#N)n3nccc23)C[C@@H](C)O1 [Example 17, (2R,6R)-4-(7-cyanopyrazolo[1,5-a]pyridin-4-yl)-N-(1,1-dimethylpropyl)-6-methyl-morpholine-2-carboxamide]
610 | C[C@@H]1CN(c2ccc(C#N)n3nccc23)C[C@H](C(=O)NC2CCNC2)O1 (stereo partly drawn) [Example 25, (2R,6R)-4-(7-cyanopyrazolo[1,5-a]pyridin-4-yl)-6-methyl-N-pyrrolidin-3-yl-morpholine-2-carboxamide]
31 | C[C@@H]1CN(c2ccc(C#N)n3nccc23)C[C@H](C(=O)NC2CN(C)CC23CC3)O1 (stereo partly drawn) [Example 32, (2R,6R)-4-(7-cyanopyrazolo[1,5-a]pyridin-4-yl)-6-methyl-N-(5-methyl-5-azaspiro[2.4]heptan-7-yl)morpholine-2-carboxamide]
520 | C[C@@H]1CN(c2ccc(C#N)n3nccc23)C[C@H](C(=O)N2CC(N)C2)O1 [Example 8, 4-[(2R,6R)-2-(3-aminoazetidine-1-carbonyl)-6-methyl-morpholin-4-yl]pyrazolo[1,5a]pyridine-7-carbonitrile]

The remaining lines, values behind:

Compound | IC50 [nM]
C[C@@H]1CN(c2ccc(Cl)n3nccc23)C[C@H](C(=O)NC2CCN(C)CC2)O1 [Example 38, (2R,6R)-4-(7-chloropyrazolo[1,5-a]pyridin-4-yl)-6-methyl-N-(1-methyl-4-piperidyl)morpholine-2-carboxamide] | 7
C[C@@H]1CN(c2ccc(C#N)n3nccc23)C[C@H](C(=O)N[C@H]2CC[C@H](O)CC2)O1 [Example 21, Trans-(2R,6R)-4-(7-cyanopyrazolo[1,5-a]pyridin-4-yl)-N-(4-hydroxycyclohexyl)-6-methyl-morpholine-2-carboxamide] | 570
C[C@@H]1CN(c2ccc(C#N)n3nccc23)C[C@H](C(=O)NC2C3CCC2CNC3)O1 (stereo partly drawn) [Example 26, (2R,6R)-N-(3-azabicyclo[3.2.1]octan-8-yl)-4-(7-cyanopyrazolo[1,5-a]pyridin-4-yl)-6-methyl-morpholine-2-carboxamide] | 93
C[C@@H]1CN(c2ccc(C#N)n3nccc23)C[C@H](C(=O)NC2CC3CCC2CN3C)O1 (stereo partly drawn) [Example 34, (2R,6R)-4-(7-cyanopyrazolo[1,5-a]pyridin-4-yl)-6-methyl-N-(2-methyl-2-azabicyclo[2.2.2]octan-5-yl)morpholine-2-carboxamide] | 98
C[C@@H]1CN(c2ccc(C#N)n3nccc23)C[C@H](C(=O)NC2CC3CC2CN3)O1 (stereo partly drawn) [Example 36, (2R,6R)-N-(2-azabicyclo[2.2.1]heptan-5-yl)-4-(7-cyanopyrazolo[1,5-a]pyridin-4-yl)-6-methyl-morpholine-2-carboxamide] | 830
C[C@@H]1CN(c2ccc(C#N)n3nccc23)C[C@H](C(=O)NC23CC4CC(CC(C4)C2)C3)O1 [Example 12, (2R,6R)-N-(1-adamantyl)-4-(7-cyanopyrazolo[1,5-a]pyridin-4-yl)-6-methyl-morpholine-2-carboxamide] | 320
C[C@@H]1CN(c2ccc(C#N)n3nccc23)C[C@H](C(=O)NC2C3CNCC2COC3)O1 (stereo partly drawn) [Example 27, (2R,6R)-4-(7-cyanopyrazolo[1,5-a]pyridin-4-yl)-6-methyl-N-(3-oxa-7-azabicyclo[3.3.1]nonan-9-yl)morpholine-2-carboxamide] | 370
C[C@@H]1CN(c2ccc(C#N)n3nccc23)C[C@H](C(=O)NC2C3CCCC2CNC3)O1 (stereo partly drawn) [Example 37, (2R,6R)-N-(3-azabicyclo[3.3.1]nonan-9-yl)-4-(7-cyanopyrazolo[1,5-a]pyridin-4-yl)-6-methyl-morpholine-2-carboxamide] | 18
C[C@@H]1CN(c2ccc(C#N)n3nccc23)C[C@H](C(=O)NC2CC3COCC(C2)N3)O1 (stereo partly drawn) [Example 22, Endo-(2R,6R)-4-(7-cyanopyrazolo[1,5-a]pyridin-4-yl)-6-methyl-N-[3-oxa-9-azabicyclo[3.3.1]nonan-7-yl]morpholine-2-carboxamide] | 25
C[C@@H]1CN(c2ccc(C#N)n3nccc23)C[C@H](C(=O)NC2CCCNCC2)O1 (stereo partly drawn) [Example 6, (2R,6R)-N-(azepan-4-yl)-4-(7-cyanopyrazolo[1,5-a]pyridin-4-yl)-6-methyl-morpholine-2-carboxamide] | 11
C[C@@H]1CN(c2ccc(C#N)n3nccc23)C[C@H](C(=O)NC2(C)CCNCC2)O1 [Example 19, (2R,6R)-4-(7-cyanopyrazolo[1,5-a]pyridin-4-yl)-6-methyl-N-(4-methyl-4-piperidyl)morpholine-2-carboxamide] | 27
C[C@H]1C[C@@H](NC(=O)[C@H](C)N)CN(c2ccc(C#N)n3nccc23)C1 [Example 44, (2S)-2-amino-N-[(3R,5S)-1-(7-cyanopyrazolo[1,5-a]pyridin-4-yl)-5-methyl-3-piperidyl]propanamide] | 140
C[C@@H]1CN(c2ccc(C#N)n3nccc23)C[C@H](C(=O)NC2CC3CCCC(C2)N3)O1 (stereo partly drawn) [Example 14, (2R,6R)-N-(9-azabicyclo[3.3.1]nonan-3-yl)-4-(7-cyanopyrazolo[1,5-a]pyridin-4-yl)-6-methyl-morpholine-2-carboxamide] | 30
